From patent publication US9782400B2, “Oncogenic ROS1 and ALK kinase inhibitor” (Macau University of Science and Technology, priority 2015, dated 2017)

What was measured:
ROS1 fusion kinase = experiment: Western blot of ROS1 phosphorylation and downstream signaling in HCC78 cells; assay type: cell-based; conditions: HCC78 cells, 1.25, 2.5, 5 μM, 72 h
Experimental: The cells were planted on 6-well plate, allowed to attach for 24 h, and treated with the various concentrations of the compound of Formula (Ic) for 72 h. Cells were washed twice with cold PBS then lysed in RIPA lysis buffer containing protease and phosphatase inhibitors. Protein concentration of the cell lysates was measured using the Bio-Rad protein Assay kit (Bio-Rad, 7 Philadelphia, Pa., USA). After equalizing the protein concentrations of the samples, 5× laemmli buffer was added and the samples were boiled at 100° C. for 5 min. Equal amounts of protein samples (30 μg) were subjected to SDS-PAGE of a 10% gel. The separated proteins were transferred to a nitrocellulose (NC) membrane, which was then exposed to 5% non-fat dried milk in TBS containing 0.1% Tween (0.1% TBST) for 1 h at room temperature, followed by overnight incubation at 4° C. with primary antibodies to GAPDH, phospho-AKT, AKT, phospho-ROS1, ROS1, phospho-ERK, ERK, phospho-STAT3, STAT3. After washing three times by TBST (5 mins/time), the membranes were incubated for 1 h at room temperature with the secondary fluorescent antibodies (1:10000 dilutions) to rabbit or mouse. The signal intensity of the membranes was detected by an LI-COR Odessy scanner (Belfast, Me., USA).

H2228 cells [1] = experiment: Colony formation assay in H2228 cells; assay type: cell-based; conditions: 14 days
Experimental: H2228 cells were seeded to six-well plate (1000/well). Then cells were exposed to various doses of the compound of Formula (Ic), namely 1.25, 2.5 and 5 μM. After 14 days, colonies were fixed with 4% paraformaldehyde for 15 min and stained with crystal violet for 10-15 min. Finally, the staining solution was slowly washed off with water and the cells were air dried. Clones with more than 50 cells were counted under a microscope.

H2228 NSCLC cells = experiment: MTT assay, cell viability of H2228 cells; assay type: cell-based; conditions: Homo sapiens, NCI-H2228, 72 h treatment
Experimental: (§1) H2228 (which express EML4-ALK fusion kinases, namely variant 3) and BEAS-2B cells were obtained from the American Type Culture Collection and cultured in environment of 5% CO2 at 37° C. in RPMI-1640 medium supplemented with 10% fetal bovine serum (FBS), 100 units/mL penicillin, and 100 μg/mL streptomycin.
(§2) The cytotoxicity effect of the compound of Formula (Ic) on H2228 NSCLC cells (harboring ALK fusion) and human bronchial epithelial (BEAS-2B) have been analyzed. H2228 cells were cultured in 96-well plates at a density of 3×10^3 cells/well, and were cultured overnight for cell adhesion. Then the cells were treated with DMSO or various concentrations of the compound of Formula (Ic) for 72 h. To each well 10 μL MTT (5 mg/mL) (Sigma) was added and the cells were incubated for another 4 h at 37° C., followed by adding 100 μL acidic isopropanol (10% SDS, and 0.01 mol/L HCl). Finally, the optical density (OD) of each well was measured at 570 nm by the Microplate Reader (Epoch, Winooski, USA). The cell viability was calculated relative to untreated controls, with results based on at least three independent experiments.

ALK fusion kinase = experiment: Western blot of ALK phosphorylation and downstream signaling in H2228 cells; assay type: cell-based; conditions: H2228 cells, 1.25, 2.5, 5 μM
Experimental: Equal amounts of the protein samples (20-40 μg per lane) were separated on a 10% SDS-PAGE gel, then proteins were transferred onto Nitrocellulose (NC) membrane at 300 mA for 2.5 hours at 4° C., the membranes was probed with primary antibodies overnight at 4° C. which was then exposed to 5% non-fat dry milk in TBST for 1 h at room temperature with constant agitation and, then, rabbit or mouse fluorescent antibodies (1:1000) were added to the membrane at room temperature for 1 h. Visualization was performed using a LI-COR Odessy scanner (Belfast, Me., USA). All primary antibodies were diluted 1:1000, while their recommended secondary antibodies were diluted 1:10000.

BEAS-2B cells [2] = experiment: MTT assay, normal lung epithelial cells (Example 1A); assay type: cell-based; conditions: Homo sapiens, 72 h treatment
Experimental: (§3) To show the highly cytotoxic and selective properties of the present compound of Formula (Ic), HCC78 NSCLC cells and normal lung epithelial cells (BEAS-2B) were treated with the compound of Formula (Ic) and respective effects were observed. HCC78 NSCLC cells are non-small cell lung cancer cells with a ROS1 gene fusion. HCC78 cells were obtained from the American Type Culture Collection (ATCC) and cultured in environment of 5% CO2 at 37° C. in RPMI-1640 medium supplemented with 10% fetal bovine serum (FBS), 100 units/mL penicillin, and 100 μg/mL streptomycin. The compound of Formula (Ic) was dissolved in DMSO. Using a MTT assay, 3000 HCC78 or BEAS-2B cells were seeded on 96-well plates, cultured overnight for cell adhesion, and treated with DMSO or various concentrations of the compound of Formula (Ic) for 72 h. Three independent tests were performed. 10 μL of MTT (5 mg/mL; Sigma) were added to each well, and incubation continued for another 4 h. Then the dark blue crystals were dissolved in 100 μL of the resolved solution (10% SDS and 0.1 mM HCL). The absorbance was measured at 570 nm by a microplate reader (Tecan, Morrisville, N.C., USA).
(§4) The cell viability was calculated relative to untreated controls, with results based on at least three independent experiments. […] The compound of Formula (Ic) exerts a 3.75-fold cytotoxicity towards cancer cells than normal healthy cells.

BEAS-2B cells [3] = experiment: MTT assay, human bronchial epithelial cells (Example 2A); assay type: cell-based; conditions: 72 h treatment
Experimental: as §1, §2

HCC78 cells = experiment: Apoptosis assay (Annexin-V FITC/PI, fluorescence images and flow cytometry) in HCC78 cells; assay type: cell-based; conditions: 72 h
Experimental: HCC78 cells (1.0×10^5 cells/well) were allowed to attach to a 6-well plate for 24 h, and the cells were treated with the various concentrations of the compound of Formula (Ic) for additional 72 h. At the end of incubation, the cells were harvested by trypsinization and washed twice with ice-cold PBS. After centrifugation and removal of the supernatants, cell pellets were resuspended in 100 μL 1× Annexin-binding buffer, 2 μL Annexin-V FITC and 2 μL PI (100 μg/ml) were added and incubated in the dark at room temperature for 15 min before further addition of 400 μL of 1× Annexin-binding buffer. The stained cells were analyzed quantitatively using a flow cytometer (BD Biosciences, San Jose, Calif., USA). […] Such cell morphology indicates apoptosis.

HCC78 NSCLC cells = experiment: MTT assay, cell viability of HCC78 cells; assay type: cell-based
Experimental: as §3, §4

H2228 cells [4] = experiment: Apoptosis assay (Annexin-V FITC/PI flow cytometry) in H2228 cells; assay type: cell-based; conditions: 48 h
Experimental: H2228 cells (1.0×10^5 cells/well) were allowed to attach in a 6-well plate for 24 h. The cells were treated with various concentrations of the compound of Formula (Ic), namely 1.25, 2.5 and 5 μM, for 48 h. Subsequently, cells were trypsinized, washed with PBS twice, then the cells were resuspended in a total volume of 100 μL binding buffer with 2 μL Annexin-V FITC and 5 μL propidine iodide (PI). Finally, the cells were gently mixed and incubated in the dark at room temperature for 15 min, before further addition of 400 μL of 1× Annexin-binding buffer, the number of apoptotic cells was quantified using a Flow Cytometer (BD Biosciences, San Jose, Calif., USA) within 1 h. Data were analyzed by Flow Jo software.

ROS1-positive NSCLC = conditions: NSCLC patients harboring ROS1 rearrangements; cited from earlier work

COc1ccc(CNC(=O)Cn2nc(-c3ccccc3)c3cnc4ccccc4c32)cc1 [compound of Formula (Ic)]
ROS1 phosphorylation and downstream signaling involving Erk1/2, STAT3 and AKT (ROS1 fusion kinase): dose-dependent decrease | formation of H2228 cell colonies (H2228 cells [1]; 5 μM): no visible colonies | formation of H2228 cell colonies (H2228 cells [1]; 1.25, 2.5, 5 μM): inhibited the formation of H2228 cell colonies in a dose-dependent manner | IC50 (H2228 NSCLC cells): 2.71 ± 0.92 µM | ALK phosphorylation and downstream PI3K/AKT, MEK/ERK and JAK/STAT3 signaling pathways (ALK fusion kinase): significant suppression | IC50 (BEAS-2B cells [2]): 6.08 µM | IC50 (BEAS-2B cells [3]): 6.51 ± 1.08 µM | cell morphology indicating apoptosis (fluorescence images) (HCC78 cells; HCC78 cells, 2.5 μM): detach from the surface and are small | induction of apoptosis (flow cytometry) (HCC78 cells; HCC78 cells, 1.25, 2.5, 5 μM): induction of apoptosis on HCC78 cells in a concentration dependent manner | fold cytotoxicity towards cancer cells than normal healthy cells (HCC78 NSCLC cells; HCC78 versus BEAS-2B, 72 h): 3.75 fold | IC50 (HCC78 NSCLC cells; Homo sapiens, HCC78 cells, MTT, 72 h treatment): 1.62 µM | induction of apoptosis (flow cytometry) (H2228 cells [4]; H2228 cells, 1.25, 2.5, 5 μM): induction of apoptosis of H2228 cells in a concentration-dependent manner | level of cell apoptosis compared with control group (H2228 cells [4]; H2228 cells, concentration of at least 5 μM): significant levels of cell apoptosis

C[C@@H](Oc1cc(-c2cnn(C3CCNCC3)c2)cnc1N)c1c(Cl)ccc(F)c1Cl [crizotinib]
median progression-free survival (ROS1-positive NSCLC): 19.2 months | objective response rate (ROS1-positive NSCLC): 72%
